{"source": "patent US20220339180A1", "about": "“Methods And Compositions For Treating Viral Diseases Using Combination Of Drugs” (priority 2021, published 2022)", "key": {"CoV-2 RdRp": {"target": "CoV-2 RdRp (Severe acute respiratory syndrome coronavirus 2, UniProt P0DTD1)", "assay_type": "biochemical, SARS-CoV-2"}, "human Akt2 [1]": {"target": "T1, human Akt2 (Homo sapiens, UniProt P31751)", "test": "ADP-Glo Kinase assay, human Akt2", "assay_type": "biochemical", "details": "500 nM compound, excess of ATP"}, "SARS-CoV-2": {"test_system": "SARS-CoV-2", "assay_type": "cell-based"}, "human Akt2 [2]": {"target": "T1, human Akt2", "details": "read-out: Km for ATP; human Akt2, previously reported studies; cited from earlier work"}, "[3]": {"substrate": "Nc1ncnc2c1ncn2[C@@H]1O[C@H](COP(=O)(O)OP(=O)(O)OP(=O)(O)O)[C@@H](O)[C@H]1O", "test": "purified protein, by the assay type", "details": "other: human Akt2"}}, "note": "Where two headings read alike, the source gives them in different places."}
{"molecule": "CN(C)S(=O)(=O)c1ccc2c(c1)/C(=C/c1cc3c([nH]1)CCCC3)C(=O)N2", "note": "[SU6656]", "values": [{"measurement": "inhibition of kinase like activity of CoV-2 RdRp", "setting": "CoV-2 RdRp", "value": "significantly abrogated"}, {"measurement": "inhibition of kinase activity of human Akt2", "setting": "human Akt2 [1]", "value": "significantly inhibited"}]}
{"molecule": "CNC(=O)c1cc(Oc2ccc(NC(=O)Nc3ccc(Cl)c(C(F)(F)F)c3)cc2)ccn1", "note": "[Sorafenib]", "values": [{"measurement": "cell survival of SARS-CoV-2 infected epithelial cells", "setting": "SARS-CoV-2; 1, 5, 25 and 50 μM, concentrations similar to Remdesivir", "value": "improves cell survival"}, {"measurement": "reduction in the infection", "setting": "SARS-CoV-2; 1-50 μM, Remdesivir as control", "value": "significant reduction in the infection"}, {"measurement": "clearing of virus from infected cells, single agent", "setting": "SARS-CoV-2; Sorafenib 4 μM or remdesivir 1 μM alone", "value": "have effect to clear the virus"}, {"measurement": "viral load", "setting": "SARS-CoV-2; ex-vivo SARS-CoV-2 infection in cell line", "value": "significantly reduces viral load"}, {"measurement": "inhibition of kinase activity of human Akt2", "setting": "human Akt2 [1]", "value": "significantly inhibited"}]}
{"molecule": "CC(Cc1ccc(O)c(O)c1)C(C)Cc1ccc(O)c(O)c1", "note": "(stereo not drawn) [compound 4534, Nordihydroguaiaretic acid]", "values": [{"measurement": "inhibition of kinase like activity of CoV-2 RdRp", "setting": "CoV-2 RdRp", "value": "failed to inhibit"}]}
{"molecule": "NC(=O)c1ncn([C@@H]2O[C@H](COP(=O)(O)OP(=O)(O)OP(=O)(O)O)[C@@H](O)[C@H]2O)n1", "note": "[compound 122108, Ribavirin 5′-triphosphate]", "values": [{"measurement": "inhibition of kinase like activity of CoV-2 RdRp", "setting": "CoV-2 RdRp; 500 nM compound, excess of ATP", "value": "very little effects"}, {"measurement": "inhibition of kinase like activity of CoV-2 RdRp", "setting": "CoV-2 RdRp; 1000 nM compound", "value": "conspicuous inhibitions"}]}
{"molecule": "Nc1ncnc2c1ncn2[C@@H]1O[C@H](COP(=O)(O)OP(=O)(O)OP(=O)(O)O)[C@@H](O)[C@H]1O", "note": "[ATP, Adenosine triphosphate]", "values": [{"measurement": "Km", "setting": "human Akt2 [2]", "value": "~350", "unit": "µM"}]}
{"molecule": "human Akt2 (Homo sapiens) (protein) MNEVSVIKEGWLHKRGEYIKTWRPRYFLLKSDGSFIGYKERPEAPDQTLPPLNNFSVAECQLMKTERPRPNTFVIRCLQWTTVIERTFHVDSPDEREEWMRAIQMVANSLKQRAPGEDPMDYKCGSPSDSSTTEEMEVAVSKARAKVTMNDFDYLKLLGKGTFGKVILVREKATGRYYAMKILRKEVIIAKDEVAHTVTESRVLQNTRHPFLTALKYAFQTHDRLCFVMEYANGGELFFHLSRERVFTEERARFYGAEIVSALEYLHSRDVVYRDIKLENLMLDKDGHIKITDFGLCKEGISDGATMKTFCGTPEYLAPEVLEDNDYGRAVDWWGLGVVMYEMMCGRLPFYNQDHERLFELILMEEIRFPRTLSPEAKSLLAGLLKKDPKQRLGGGPSDAKEVMEHRFFLSINWQDVVQKKLLPPFKPQVTSEVDTRYFDDEFTAQSITITPPDRYDSLGLLELDQRTHFPQFSYSASIRE", "values": [{"measurement": "Km", "setting": "[3]", "value": 300, "unit": "µM"}]}
